Several values for one entry are separate records, joined by “and”; a condition that tells them apart may be missing. Equal values may be shown once. Read-outs that look alike come from different tables or passages of the source. Marks after values point to notes of the source that are not given here. *1 amine or outer side, *2 acyl side, *3 side chain or, on linkers, in order; H or OH if unused. Where a SMILES comes first, the peptide text is derived from it. [ ]: non-standard residue; d: D form. The star is where a group is joined. γGlu = O=C(O)[C@H](CCC(=O)[*:2])N[*:1]; dPhg = N[C@@H](C(=O)O)c1ccccc1; Bn = c1ccc(C*)cc1
Tests used:
[1] = tested on: bone marrow GM-CFU; assay: 5-fluorouracil-induced GM-CFU suppression in mice
Description: The control group was not treated with either drug. Bone marrows were harvested and GM-CFUs were determined 24 hours after the final injection.
Values are the mean ± SE of three mice per point.

[2] = tested on: HT-29 (human colon adenocarcinoma) cells; assay: modified clonogenic assay, potentiation of chlorambucil cytotoxicity; type: cell-based; settings: for DMF (dose modification factor), Parent Compound / DMF (dose modification factor), Diethyl ester / DMF of DEE: chlorambucil, mean ±S.D. of 2-3 experiments; for DMF (dose modification factor), Parent Compound: dose tested 100 µM; for DMF of DEE: diethyl ester
Description: HT-29 (human colon adenocarcinoma) cells were obtained from Dr. Roberto Ceriani (Cancer Research Fund of Contra Costa County, Walnut Creek, CA) and were used in log phase of growth unless otherwise specified. Chlorambucil (CMB) was obtained from Sigma (St. Louis, MO) and was dissolved in 100% ethanol. All GST inhibitors were dissolved in ethanol, DMSO, or water just prior to use. The same amount of solvent added to culture medium served as the vehicle control.
In a modified clonogenic assay for cytotoxicity, cells were suspended at 2 x 10^5 cells/ml in serum-free medium in the presence of vehicle or inhibitor. […] Cells were incubated for 2 hours, then varying doses of CMB were added. At the end of a second 2-hour incubation, cells were diluted to 7.5-10 x 10^3/ml in serum-containing medium and plated in quadruplicate at 200 µl/well in Microtest III microtiter plates.
Plates were incubated for 6 days and assayed by a modified methylene blue method. Briefly, cells were fixed with 1.25% glutaraldehyde in PBS then stained with 0.05% methylene blue in distilled water. Plates were washed several times in distilled water to remove unretained dye and retained dye was resolubilized in 0.03 N HCl. Plates were read at 650 nm in a Molecular Devices Vmax plate reader (Molecular Devices, Redwood City, CA). […] A dose modification factor (DMF), a measure of potentiation of cytotoxicity, was calculated for each inhibitor by dividing the IC50 value of CMB without inhibitor treatment by the IC50 value for CMB with inhibitor treatment.

[3] = molecular target: Human GST P1-1 (Homo sapiens, UniProt P09211); assay: inhibition of GST isoenzyme P1-1 (Ki); type: biochemical; settings: for Rank order: rank of Ki for Human GST P1-1
Sequence of Human GST P1-1 (P09211 2-210 limits assumed): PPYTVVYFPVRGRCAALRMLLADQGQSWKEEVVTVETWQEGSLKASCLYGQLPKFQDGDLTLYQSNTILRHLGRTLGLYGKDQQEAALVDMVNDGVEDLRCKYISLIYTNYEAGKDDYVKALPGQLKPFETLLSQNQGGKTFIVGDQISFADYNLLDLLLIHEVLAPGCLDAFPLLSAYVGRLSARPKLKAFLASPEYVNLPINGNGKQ

[4] = molecular target: T1, GST M1a-1a (Homo sapiens, UniProt P09488); assay: inhibition of GST isoenzyme M1a-1a (Ki); type: biochemical
T1 sequence (P09488 1-218): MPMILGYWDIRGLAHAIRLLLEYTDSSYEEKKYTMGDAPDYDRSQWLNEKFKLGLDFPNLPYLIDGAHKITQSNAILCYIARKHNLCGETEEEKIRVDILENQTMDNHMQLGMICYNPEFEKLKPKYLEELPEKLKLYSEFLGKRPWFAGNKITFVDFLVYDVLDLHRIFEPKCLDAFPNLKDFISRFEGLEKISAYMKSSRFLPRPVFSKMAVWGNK

[5] = molecular target: T2, GST M2-2 (Homo sapiens, UniProt P28161); assay: inhibition of GST isoenzyme M2-2 (Ki); type: biochemical; settings: determined on unesterified form
T2 sequence (P28161 1-218): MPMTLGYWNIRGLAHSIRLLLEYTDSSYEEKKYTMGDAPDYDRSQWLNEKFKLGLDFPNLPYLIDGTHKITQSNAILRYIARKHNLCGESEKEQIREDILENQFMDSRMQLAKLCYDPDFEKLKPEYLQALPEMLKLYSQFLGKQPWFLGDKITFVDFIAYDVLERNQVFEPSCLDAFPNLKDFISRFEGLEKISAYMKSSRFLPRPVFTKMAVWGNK

[6] = tested on: bone marrow GM-CFU; assay: stimulation of bone marrow GM-CFU after administration to mice; type: in vivo, B6D2F1 mice; settings: bone marrow harvested 24 hours after administering
Description: In an illustrative assay three B6D2F1 mice were treated with various doses of benzyl PG intraperitoneally.
Mice in the control group were injected with water or saline. Bone marrow cells were harvested 24 hours after drug treatment and added to alpha minimum essential medium (alpha MEM) supplemented with methylcellulose (0.8% w/v), fetal bovine serum (20% v/v), deionized BSA (1% w/v), Pokeweed mitogen-stimulated spleen-cell conditioned medium (PWM-SCCM)^1 (10% v/v) and gentamycin (50 Tg/ml). One ml aliquots were plated (four replicate plates) and incubated for seven days at 37 °C. […] Spleens were removed aseptically from four male B6D2F1 mice enforced through a 200 Tm wire mesh screen to obtain a single cell suspension. Ten ml of the suspension (2-4 X 10^7 cell/ml was added to 90 ml alpha-MEM supplemented with 1% deionized BSA, 50 Tg/ml gentamicin, 0.3% freshly reconstituted pokeweed antigen, 10 µM 2-mercaptoethanol. The mixture was incubated for 5 days at […] in a 5% CO2 atmosphere and the result-ing conditioned medium was centrifuged at 800g for ten minutes and filtered through a 0.22 Tm filter. Aliquots were kept frozen at […] until use.
Bone marrow was harvested 24 hours after administering the compounds and GM-CFU levels measured as described above.

[7] = molecular target: T3, GST A1-1 (Homo sapiens, UniProt P08263); assay: inhibition of GST isoenzyme A1-1 (Ki); type: biochemical
T3 sequence (P08263 1-222): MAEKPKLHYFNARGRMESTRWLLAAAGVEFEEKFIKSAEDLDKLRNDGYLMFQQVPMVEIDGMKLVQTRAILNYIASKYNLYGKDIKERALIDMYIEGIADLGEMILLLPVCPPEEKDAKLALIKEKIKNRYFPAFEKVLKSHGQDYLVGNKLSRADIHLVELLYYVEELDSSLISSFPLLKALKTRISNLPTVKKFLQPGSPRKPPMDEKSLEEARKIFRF

[8] = tested on: HT4-1, a subclone of HT-29; assay: standard clonogenic assay, potentiation of drug toxicity, HT4-1
Description: Four chemotherapeutic drugs, chlorambucil, adriamycin, mitomycin C and doxorubicin were used as the toxic agents. In these assays, the cells were seeded at 300 cells/well in 2 ml of medium in 6-well plates in the presence of the compounds used in the invention as the diethyl esters. […] After incubation for 1-2 hours to permit cells to attach, varying doses of the chemotherapeutic agents were added. At least three replicate wells were plated for each test condition and the plates were incubated for two weeks. […] IC50 values were determined for the chemotherapeutic agent in the presence or absence of the compound used in the invention and dose modification factors were calculated by dividing the IC50 value of drug without the compound by the IC50 value of the drug with the compound.

[9] = tested on: VLB, a vinblastine-resistant variant of SKOV-3; assay: standard clonogenic assay, potentiation of drug toxicity, VLB; type: cell-based
Description: (§1) ; SKOV-3 an ovarian carcinoma, and VLB, a vinblastine-resistant variant of SKOV-3. Four chemotherapeutic drugs, chlorambucil, adriamycin, mitomycin C and doxorubicin were used as the toxic agents. In these assays, the cells were seeded at 300 cells/well in 2 ml of medium in 6-well plates in the presence of the compounds used in the invention as the diethyl esters. […]. After incubation for 1-2 hours to permit cells to attach, varying doses of the chemotherapeutic agents were added. At least three replicate wells were plated for each test condition and the plates were incubated for two weeks. Colonies were fixed in 95% ethanol and stained with crystal violet for colony counting. IC50 values were determined for the chemotherapeutic agent in the presence or absence of the compound used in the invention and dose modification factors were calculated by dividing the IC50 value of drug without the compound by the IC50 value of the drug with the compound.

[10] = tested on: SKOV-3 an ovarian carcinoma; assay: standard clonogenic assay, potentiation of drug toxicity, SKOV-3; type: cell-based
Description: as §1

[11] = in vitro half-life / metabolism in mouse blood; type: in vitro ADME
[12] = in vitro half-life in human blood; type: in vitro ADME
[13] = tested on: HT-29 cells; assay: Cytosensor Microphysiometer acidification rates; type: cell-based, human; settings: 4 hours pretreatment, TER199 20 µM, ethacrynic acid 50 µM
Description: The metabolic effects related to toxicity of the compounds of the invention on HT-29 cells, were tested using a Cytosensor Microphysiometer made by Molecular Devices, Inc., Menlo Park, CA and described in McConnell, H.M. et al. Science (1992) 257:1906-1912 and by Wada, H.G. et al. AATEX (1992) 1:154-164. Changes in pH of the culture medium are measured as a function of cellular metabolism. Acidification rates of the small volume of liquid flowing over the cells correlate with the number of live cells in the reaction chamber; a reduction of acidification rate reflects reduced numbers of surviving cells. […] The medium was then replaced with serum-free low buffer capacity medium and Microphysiometer analysis was initiated.

[14] = tested on: HT4-1 tumors; assay: potentiation of melphalan toxicity in vivo, implanted HT4-1 tumors; set-up: species or system Male scid mice; settings: for tumor volume as a percentage of control tumor volume: seven days, when control tumors reached 1500 mm^3
Description: Male scid mice were subcutaneously implanted with HT4-1 tumors from donor mice. HT4-1 is a subclone of HT-29, a human colon cancer. When tumors reached approximately 100 mm^3, the mice were randomized into six treatment groups and treated for seven days as follows: • 1. 5 mg/kg melphalan; • 2. 10 mg/kg ethacrynic acid; • 3. […] 5 mg/kg melphalan + 10 mg/kg ethacrynic acid; • 5.
The mice were monitored for weight changes and tumor volumes were determined by measurement with calipers. The tumor growth was monitored until the average tumor size reached 1500 mm^3 for all groups except melphalan with ethacrynic acid.
The results were computed in terms of the tumor volume in the drug treated mice as a percentage of control tumor volume (i.e., in the group administered vehicle alone). In group 1, administered melphalan alone, the tumors were approximately 75% of the volume of controls. […] For group 4 administered a combination of melphalan and ethacrynic acid, the volumes were approximately 35% of control. […] (The volume measurements were taken at the time control tumors reached 1500 mm^3.)

[15] = tested on: bone marrow GM-CFU; settings: melphalan 10 mg/kg i.p. alone
[16] = determined on unesterified form
[17] = HT4-1, TER199 at 25 µM, TER183 dose not given

Compound: O=c1[nH]cc(F)c(=O)[nH]1 [5-FU, 5-fluorouracil, reference compound]
- GM-CFU ([1]; 75 mg/kg 5-FU IP alone): 15 % of control
- GM-CFU ([1]; 5-FU 75 mg/kg i.p. alone, harvest 48 hours): 47 % of control
- GM-CFU ([1]; 5-FU 150 mg/kg i.p. alone, harvest 48 hours): 8 % of control
- GM-CFU by day 4 after 5-FU administration (Figure 9b) ([1]; 5-FU only): approximately equal to control

Compound: CCCCCCSC[C@H](NC(=O)CC[C@H](N)C(=O)O)C(=O)N[C@@H](C(=O)O)c1ccccc1 [TER102, γE-C(hexyl)-ϕG]
- DMF (dose modification factor), Parent Compound ([2]; HT-29): 1.1±0.02
- specificity for GST P1-1 ([3]; among TER117, TER102, TER211, TER143): reasonably specific
- Rank order [3]: 2

Compound: N[C@@H](CCC(=O)N[C@@H](CSCc1ccccc1)C(=O)N[C@@H](C(=O)O)c1ccccc1)C(=O)O [TER117, γE-C(Bz)-ϕG] (γGlu-Cys(Bn)-[dPhg]-OH)
- Ki [4, 16]: 25 µM
- Ki [5]: 31 µM
- DMF (dose modification factor), Parent Compound ([2]; HT-29): 1.08 and 1.08±0.01
- effect on GM-CFU as a function of dosage, ester/amide forms (Figure 7) [6]: not effective
- Ki [3, 16]: 0.4 µM
- Ki [7, 16]: 20 µM
- survival of HT4-1 cells in the presence of the compound alone (Figure 1b) ([8]; HT4-1 cells): substantially no effect

Compound: CCCCCCCCSC[C@H](NC(=O)CC[C@H](N)C(=O)O)C(=O)NCC(=O)O [TER143, γE-C(octyl)-G]
- Rank order [3]: 4

Compound: CCCCCCCCSC[C@H](NC(=O)CC[C@H](N)C(=O)OCC)C(=O)NCC(=O)OCC [TER143, γE-C(octyl)-G]
- Ki [4]: 1.2 µM
- Ki [3]: 1.9 µM
- Ki [7]: 0.27 µM

Compound: CCCCCCCCSC[C@H](NC(=O)CC[C@H](N)C(=O)OCC)C(=O)NCC(=O)OCC [TER183, γE-C(octyl)-G diethyl ester]
- DMF (dose modification factor), Diethyl ester ([2]; HT-29, dose tested 5 µM): 0.86±0.02
- DMF of DEE [2]: 0.864
- DMF for Adriamycin ([9]; TER199 at 25 µM, TER183 dose not given): 1.06
- DMF for Mitomycin C ([9]; test dose not given): 1.63
- DMF for Adriamycin ([10]; analog @5 uM): 1.24 (@5 uM)^c
- DMF for Chlorambucil ([10]; test dose not given): 1.03
- DMF for Adriamycin [8, 17]: 1.13
- DMF for Chlorambucil [8, 17]: 1.74
- DMF for Mitomycin C [8, 17]: 1.56

Compound: CCNC(=O)C(N)CCC(=O)NC(CSCc1ccccc1)C(=O)N[C@@H](C(=O)NCC)c1ccccc1 (stereo partly drawn) [TER278, γE ethyl amide-C(Bz)-R-(-)-ϕG ethyl amide]
- half-life compared with TER199 [11]: longer half-lives than TER199
- DMF for chlorambucil toxicity ([2]; HT-29, 200 µM, single experiment): 1.0
- ability to potentiate chlorambucil compared with TER199 ([2]; test system not stated): less able to potentiate chlorambucil
- toxicity compared with TER199 ([2]; test system not stated): less toxic
- half-life, comparison of the three compounds [12]: approximately the same

Compound: C=C(CC)C(=O)c1ccc(OCC(=O)O)c(Cl)c1Cl [ethacrynic acid, reference compound]
- effect on acidification rates, compound alone (Figure 2) ([13]; no chlorambucil): Neither γE-C(Bz)-ϕG diethylester (TER199) nor ethacrynic acid alone had any appreciable effect
- effect of pretreatment on acidification rates with chlorambucil (Figure 2) ([13]; then 100 µM chlorambucil): potentiated the effect of chlorambucil
- time until average tumor size reached 1500 mm^3 ([14]; 5 mg/kg melphalan + 10 mg/kg ethacrynic acid, volume not reached): > 72 days
- tumor volume as a percentage of control tumor volume ([14]; group 4: 5 mg/kg melphalan + 10 mg/kg ethacrynic acid): approximately 35%

Compound: N[C@@H](Cc1ccc(N(CCCl)CCCl)cc1)C(=O)O [melphalan, reference compound]
- GM-CFU remaining [15]: 2%
- tumor volume as a percentage of control tumor volume ([14]; group 1: 5 mg/kg melphalan alone): approximately 75%

Compound: CCCCCCSC[C@H](NC(=O)CC[C@H](N)C(=O)OCC)C(=O)NC(C(=O)OCC)c1ccccc1 (some centres unmarked) [γE-C(Hx)-ϕG diethyl ester, γE-C(Hx)-ϕG]
- DMF (dose modification factor), Diethyl ester ([2]; HT-29, dose tested 12.5 µM): 1.27±0.02
- DMF of DEE [2]: 1.272

Compound: γE-C(Bz) (S+)-fA [TER317]
- Ki [4, 16]: > 1000 µM
- Ki [5]: > 1000 µM
- effect on GM-CFU, analogs of TER199 (Figure 8) [6]: inactive
- Ki [3, 16]: > 1000 µM
- Ki [7, 16]: > 1000 µM

Compound: γE-C(naphthyl)-G [TER206]
- Ki [4, 16]: 0.01 µM
- Ki [5]: 1.5 µM
- DMF (dose modification factor), Diethyl ester ([2]; HT-29, dose tested 12.5 µM): 1.21±0.01
- DMF of DEE [2]: 1.213
- effect on GM-CFU, analogs of TER199 (Figure 8) [6]: inactive
- Ki [3, 16]: 1.2 µM
- Ki [7, 16]: 4.2 µM

Compound: γE-C(naphthyl)-G [TER211]
- Rank order [3]: 3
